From PubChem BioAssay AID1963871 (Molecular Pharmacology Branch, DTP, NCI, 2024)

Test system: KRAS-mutant PDC multicell tumor spheroid viability
Assay: Anticancer human tumor 521955-158-R2-J5-PDC patient-derived pancreatic carcinoma cell line growth inhibition [KRAS2]
Conditions: for viability, T/C: stronger effect = lower value
Summary of the method: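 Combination screen of spheroid viability in tumor-cell co-cultures with endothelial (HUVEC) and mesenchymal stem cell stroma. Each agent was tested in half-log dilutions, topping at clinical Cmax or at 10 microM without a known Cmax.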

[1] = curve of first compound, second compound 0.1 µM
[2] = curve of first compound, second compound 0.316 µM
[3] = curve of first compound, second compound 1 µM
[4] = curve of first compound, second compound 3.16 µM
[5] = curve of first compound, second compound 10 µM
[6] = second compound 0.1 µM, first compound 0.01 µM
[7] = second compound 0.1 µM, first compound 0.0316 µM
[8] = second compound 0.1 µM, first compound 0.1 µM
[9] = second compound 0.1 µM, first compound 0.316 µM
[10] = second compound 0.1 µM, first compound 1 µM
[11] = second compound 0.1 µM, first compound 3.16 µM
[12] = second compound 0.316 µM, first compound 0.01 µM
[13] = second compound 0.316 µM, first compound 0.0316 µM
[14] = second compound 0.316 µM, first compound 0.1 µM
[15] = second compound 0.316 µM, first compound 0.316 µM
[16] = second compound 0.316 µM, first compound 1 µM
[17] = second compound 0.316 µM, first compound 3.16 µM
[18] = second compound 1 µM, first compound 0.01 µM
[19] = second compound 1 µM, first compound 0.0316 µM
[20] = second compound 1 µM, first compound 0.1 µM
[21] = second compound 1 µM, first compound 0.316 µM
[22] = second compound 1 µM, first compound 1 µM
[23] = second compound 1 µM, first compound 3.16 µM
[24] = second compound 3.16 µM, first compound 0.01 µM
[25] = second compound 3.16 µM, first compound 0.0316 µM
[26] = second compound 3.16 µM, first compound 0.1 µM
[27] = second compound 3.16 µM, first compound 0.316 µM
[28] = second compound 3.16 µM, first compound 1 µM
[29] = second compound 10 µM, first compound 0.01 µM
[30] = second compound 10 µM, first compound 0.0316 µM
[31] = second compound 10 µM, first compound 0.1 µM
[32] = second compound 10 µM, first compound 0.316 µM
[33] = second compound 10 µM, first compound 1 µM
[34] = second compound 10 µM, first compound 3.16 µM
[35] = second compound 3.16 µM, first compound 3.16 µM
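Further: viability read after seven days of drug exposure.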

CC1COCCN1c1cc(-c2ccnn2C)c2ccnc(-c3ccn[nH]3)c2n1 (stereo unspecified) + C=CC(=O)N1CCN(c2nc(=O)n(-c3c(C)ccnc3C(C)C)c3nc(-c4c(O)cccc4F)c(F)cc23)C(C)C1
IC50 [1]: 30.2 nM
IC50 [2]: 40.3 nM
IC50 [3]: 30.1 nM
IC50 [4]: 24.3 nM
IC50 [5]: 11.5 nM
viability, T/C [6]: 101%
viability, T/C [7]: 47.9%
viability, T/C [8]: 10.5%
viability, T/C [9]: 13.5%
viability, T/C [10]: 24.1%
viability, T/C [11]: 26.9%
viability, T/C [12]: 114%
viability, T/C [13]: 58.5%
viability, T/C [14]: 11.4%
viability, T/C [15]: 13%
viability, T/C [16]: 20.3%
viability, T/C [17]: 28%
viability, T/C [18]: 102%
viability, T/C [19]: 47.6%
viability, T/C [20]: 10.5%
viability, T/C [21]: 13.6%
viability, T/C [22]: 25.6%
viability, T/C [23]: 29%
viability, T/C [24]: 79.2%
viability, T/C [25]: 41.3%
viability, T/C [26]: 11.6%
viability, T/C [27]: 13.7%
viability, T/C [28]: 22.6%
viability, T/C [29]: 54.1%
viability, T/C [30]: 18.1%
viability, T/C [31]: 13.2%
viability, T/C [32]: 18.1%
viability, T/C [33]: 23.4%
viability, T/C [34]: 25.5%

CC(C)NCC(C(=O)N1CCN(c2ncnc3c2C(C)CC3O)CC1)c1ccc(Cl)cc1 (stereo unspecified) + CNCc1ccccc1-c1csc(C(C)Nc2nc(C)nc3cc(OC)c(OC)cc23)c1
IC50 [1]: > 10000 nM
IC50 [2]: > 10000 nM
IC50 [3]: 4280 nM
IC50 [4]: < 31.6 nM
IC50 [5]: < 31.6 nM
viability, T/C [7]: 103%
viability, T/C [8]: 104%
viability, T/C [9]: 83.4%
viability, T/C [10]: 77.6%
viability, T/C [11]: 84.1%
viability, T/C (second compound 0.1 µM, first compound 10 µM): 66.3%
viability, T/C [13]: 101%
viability, T/C [14]: 102%
viability, T/C [15]: 79.9%
viability, T/C [16]: 70.1%
viability, T/C [17]: 67.5%
viability, T/C (second compound 0.316 µM, first compound 10 µM): 55.9%
viability, T/C [19]: 109%
viability, T/C [20]: 98.5%
viability, T/C [21]: 75.4%
viability, T/C [22]: 66.5%
viability, T/C [23]: 58%
viability, T/C (second compound 1 µM, first compound 10 µM): 38.2%
viability, T/C [25]: 1.5%
viability, T/C [26]: 1.33%
viability, T/C [27]: 1.91%
viability, T/C [28]: 0.59%
viability, T/C [35]: 0.9%
viability, T/C (second compound 3.16 µM, first compound 10 µM): 0.33%
viability, T/C [30]: 0.61%
viability, T/C [31]: 1.13%
viability, T/C [32]: 0.73%
viability, T/C [33]: 0.33%
viability, T/C [34]: 2.15%
viability, T/C (second compound 10 µM, first compound 10 µM): 0.33%

CC(=O)OC12COC1CC(O)C1(C)C(=O)C(O)C3=C(C)C(OC(=O)C(O)C(NC(=O)OC(C)(C)C)c4ccccc4)CC(O)(C(OC(=O)c4ccccc4)C21)C3(C)C (stereo unspecified) + CNCc1ccccc1-c1csc(C(C)Nc2nc(C)nc3cc(OC)c(OC)cc23)c1
IC50 [1]: < 10 nM
IC50 [2]: < 10 nM
IC50 [3]: < 10 nM
IC50 [4]: < 10 nM
IC50 [5]: < 10 nM
viability, T/C [6]: 28.2%
viability, T/C [7]: 16.2%
viability, T/C [8]: 15.3%
viability, T/C [9]: 14.8%
viability, T/C [10]: 16.6%
viability, T/C [11]: 20.3%
viability, T/C [12]: 20.4%
viability, T/C [13]: 16.6%
viability, T/C [14]: 16.7%
viability, T/C [15]: 15.8%
viability, T/C [16]: 19.6%
viability, T/C [17]: 23.6%
viability, T/C [18]: 23%
viability, T/C [19]: 13.2%
viability, T/C [20]: 13.2%
viability, T/C [21]: 13.2%
viability, T/C [22]: 19.9%
viability, T/C [23]: 20%
viability, T/C [24]: 0.16%
viability, T/C [25]: 13.9%
viability, T/C [26]: 0.05%
viability, T/C [27]: 0.05%
viability, T/C [28]: 0.1%
viability, T/C [35]: 17%
viability, T/C [29]: 0.17%
viability, T/C [30]: 0.14%
viability, T/C [31]: 0.11%
viability, T/C [32]: 0.11%
viability, T/C [33]: 0.12%
viability, T/C [34]: 0.34%

Cn1ncnc1[C@H]1c2n[nH]c(=O)c3cc(F)cc(c23)N[C@@H]1c1ccc(F)cc1
viability, T/C (compound 0.000316 µM): 104% [middle of 5 runs]
viability, T/C (compound 0.001 µM): 104% [middle of 5 runs]
viability, T/C (compound 0.00316 µM): 97.1% [middle of 5 runs]
viability, T/C (compound 0.01 µM): 90.9% [middle of 5 runs]
viability, T/C (compound 0.0316 µM): 90% [middle of 5 runs]
viability, T/C (compound 0.1 µM): 82.8% [middle of 5 runs]
IC50 (curve of compound): > 100 nM
